Target: Arabidopsis thaliana SHMT
Assay: SHMT activity assay (ED50 SHMT), coupled with N5,N10-CH2-THF dehydrogenase, NADH at 340 nm
Format: biochemical
Conditions: Table 2, Arabidopsis thaliana SHMT enzyme assay; values given as upper bounds
In short: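 His-tagged SHMT purified on Ni-NTA. NADH formation followed at 340 nm for 30 min; ED50 from inhibition of initial velocity.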

Row | EC50 [µM] | Compound
1 | < 0.01 | COc1ccc(C2(C3CCCC3)C(C#N)=C(N)Oc3[nH]nc(C)c32)cc1C(F)(F)F (stereo not drawn) [Compound 2.215]
2 | < 0.01 | Cc1n[nH]c2c1C(c1cc(Cl)cc(-c3ccoc3)c1)(C1CCC1)C(C#N)=C(N)O2 (stereo not drawn) [Compound 2.220]
3 | < 0.01 | Cc1n[nH]c2c1C(c1cc(Cl)cc(C(F)(F)F)c1)(C1CCC1)C(C#N)=C(N)O2 (stereo not drawn) [Compound 2.221]
4 | < 0.01 | COc1ccc(C2(C(C)C)C(C#N)=C(N)Oc3[nH]nc(C)c32)cc1Br (stereo not drawn) [Compound 2.222]
5 | < 0.01 | Cc1n[nH]c2c1C(c1cc(Cl)cc(-c3cccc(F)c3)c1)(C1CCC1)C(C#N)=C(N)O2 (stereo not drawn) [Compound 2.223]
6 | < 0.01 | Cc1n[nH]c2c1C(c1cc(Cl)cc(-c3ccc(F)cc3)c1)(C1CCC1)C(C#N)=C(N)O2 (stereo not drawn) [Compound 2.224]
7 | < 0.01 | Cc1n[nH]c2c1C(c1cc(Cl)cc(-c3ccc(Cl)cc3)c1)(C1CCC1)C(C#N)=C(N)O2 (stereo not drawn) [Compound 2.225]
8 | < 0.01 | Cc1n[nH]c2c1C(c1cc(Cl)cc(-c3ccc(O)cc3)c1)(C1CCC1)C(C#N)=C(N)O2 (stereo not drawn) [Compound 2.226]
9 | < 0.01 | Cc1n[nH]c2c1C(c1cc(Cl)cc(-c3cccc(Cl)c3)c1)(C1CCC1)C(C#N)=C(N)O2 (stereo not drawn) [Compound 2.227]
10 | < 0.1 | Cc1n[nH]c2c1C(c1ccc(F)c(Cl)c1)(C1CCCC1)C(C#N)=C(N)O2 (stereo not drawn) [Compound 2.228]
11 | < 10 | Cc1n[nH]c2c1C(c1cccc(C(F)(F)F)c1)(C1CCCCC1)C(C#N)=C(N)O2 (stereo not drawn) [Compound 2.230]
12 | < 10 | N#CC1=C(N)Oc2[nH]nc(O)c2C1(c1cc(F)cc(Cl)c1)C1CCC1 (stereo not drawn) [Compound 2.231]
13 | < 0.01 | Cc1n[nH]c2c1C(c1cc(Br)cc(Br)c1)(C1CCC1)C(C#N)=C(N)O2 (stereo not drawn) [Compound 2.232]
14 | < 0.01 | Cc1n[nH]c2c1C(c1cc(Br)cc(C(F)(F)F)c1)(C1CCC1)C(C#N)=C(N)O2 (stereo not drawn) [Compound 2.233]
15 | < 0.01 | Cc1n[nH]c2c1C(c1cc(Cl)cc(Oc3cccc(C(F)(F)F)c3)c1)(C1CCC1)C(C#N)=C(N)O2 (stereo not drawn) [Compound 2.234]
16 | < 0.01 | Cc1n[nH]c2c1C(c1cc(Cl)cc(Oc3ccccc3F)c1)(C1CCC1)C(C#N)=C(N)O2 (stereo not drawn) [Compound 2.235]
17 | < 0.01 | Cc1n[nH]c2c1C(c1cc(Cl)cc(Oc3ccccc3Cl)c1)(C1CCC1)C(C#N)=C(N)O2 (stereo not drawn) [Compound 2.236]
18 | < 0.01 | Cc1n[nH]c2c1C(c1cc(Cl)cc(Oc3cccc(Cl)c3)c1)(C1CCC1)C(C#N)=C(N)O2 (stereo not drawn) [Compound 2.237]
19 | < 0.01 | COc1cccc(Oc2cc(Cl)cc(C3(C4CCC4)C(C#N)=C(N)Oc4[nH]nc(C)c43)c2)c1 (stereo not drawn) [Compound 2.238]
20 | < 0.1 | Cc1cccc(Oc2cc(Cl)cc(C3(C4CCC4)C(C#N)=C(N)Oc4[nH]nc(C)c43)c2)c1 (stereo not drawn) [Compound 2.239]
21 | < 0.01 | Cc1ccc(Oc2cc(Cl)cc(C3(C4CCC4)C(C#N)=C(N)Oc4[nH]nc(C)c43)c2)cc1 (stereo not drawn) [Compound 2.240]
22 | < 0.01 | COc1c(Br)cc(C2(C3CCC3)C(C#N)=C(N)Oc3[nH]nc(C)c32)cc1Br (stereo not drawn) [Compound 2.241]
23 | < 0.01 | Cc1n[nH]c2c1C(c1cc(Cl)c(F)c(Cl)c1)(C1CCC1)C(C#N)=C(N)O2 (stereo not drawn) [Compound 2.242]
24 | < 0.01 | N#CC1=C(N)Oc2[nH]ncc2C1(c1cc(Cl)cc(Cl)c1)C1CCC1 (stereo not drawn) [Compound 2.244]
25 | < 0.01 | Cc1n[nH]c2c1C(c1ccc(Cl)c(Cl)c1)(C1(F)CC1)C(C#N)=C(N)O2 (stereo not drawn) [Compound 2.245]
26 | < 0.01 | N#CC1=C(N)Oc2[nH]ncc2C1(c1cc(Cl)cc(Br)c1)C1CCC1 (stereo not drawn) [Compound 2.248]

Same assay, conditions: Table 2; values given as upper bounds

Row | EC50 [µM] | Compound
27 | < 0.01 | Cc1n[nH]c2c1C(c1cc(Cl)cc(Cl)c1)(C1CCC1)C(C#N)=C(N)O2 (stereo not drawn) [Compound 2.154.]
28 | < 0.1 | CCc1n[nH]c2c1C(c1cc(Cl)cc(Cl)c1)(C1CCC1)C(C#N)=C(N)O2 (stereo not drawn) [Compound 2.155.]
29 | < 0.1 | Cc1n[nH]c2c1C(c1cc(F)cc(Cl)c1)(C1CCC1)C(C#N)=C(N)O2 (stereo not drawn) [Compound 2.157.]
30 | < 10 | CCC1(c2ccc(Oc3ccc(C(F)(F)F)cc3Cl)c(C)c2)C(C#N)=C(N)Oc2[nH]nc(C3CC3)c21 (stereo not drawn) [Compound 2.164.]
31 | < 1 | CCC1(c2cccc(Cl)c2)C(C#N)=C(N)Oc2[nH]nc(C(F)F)c21 (stereo not drawn) [Compound 2.165.]
32 | < 0.1 | CCC1(c2cc(C(F)(F)F)cc(C(F)(F)F)c2)C(C#N)=C(N)Oc2[nH]nc(C(F)F)c21 (stereo not drawn) [Compound 2.166.]
33 | < 1 | COc1ccc(C2(C(C)C)C(C#N)=C(N)Oc3[nH]nc(C)c32)cc1 (stereo not drawn) [Compound 2.167.]
34 | < 0.1 | N#CC1=C(N)Oc2[nH]nc(C(F)F)c2C1(c1cc(Cl)cc(Cl)c1)C1CCC1 (stereo not drawn) [Compound 2.168.]
35 | < 0.01 | Cc1n[nH]c2c1C(c1cccc(C(F)(F)F)c1)(C1CCC1)C(C#N)=C(N)O2 (stereo not drawn) [Compound 2.169.]
36 | < 0.1 | CCc1n[nH]c2c1C(c1cccc(C(F)(F)F)c1)(C1CCC1)C(C#N)=C(N)O2 (stereo not drawn) [Compound 2.170.]
37 | < 0.1 | N#CC1=C(N)Oc2[nH]nc(C3CC3)c2C1(c1cccc(C(F)(F)F)c1)C1CCC1 (stereo not drawn) [Compound 2.171.]
38 | < 0.1 | Cc1n[nH]c2c1C(c1cccc(Cl)c1)(C1CCC1)C(C#N)=C(N)O2 (stereo not drawn) [Compound 2.172.]
39 | < 0.1 | CCc1n[nH]c2c1C(c1cccc(Cl)c1)(C1CCC1)C(C#N)=C(N)O2 (stereo not drawn) [Compound 2.173.]
40 | < 0.1 | N#CC1=C(N)Oc2[nH]nc(C3CC3)c2C1(c1cccc(Cl)c1)C1CCC1 (stereo not drawn) [Compound 2.174.]
41 | < 1 | N#CC1=C(N)Oc2[nH]nc(C(F)F)c2C1(c1cccc(C(F)(F)F)c1)C1CCC1 (stereo not drawn) [Compound 2.175.]
42 | < 0.01 | COc1ccc(C2(C3CCC3)C(C#N)=C(N)Oc3[nH]nc(C)c32)cc1C(F)(F)F (stereo not drawn) [Compound 2.176.]
43 | < 0.01 | COc1ccc(C2(C3CCC3)C(C#N)=C(N)Oc3[nH]nc(C)c32)cc1Cl (stereo not drawn) [Compound 2.178.]
44 | < 0.1 | Cc1n[nH]c2c1C(c1cc(Cl)cc(Oc3ccccc3)c1)(C1CCC1)C(C#N)=C(N)O2 (stereo not drawn) [Compound 2.179.]
45 | < 0.1 | Cc1n[nH]c2c1C(c1cc(Cl)cc(Cl)c1)(C1(F)CCC1)C(C#N)=C(N)O2 (stereo not drawn) [Compound 2.180.]
46 | < 0.1 | Cc1n[nH]c2c1C(c1ccc(F)c(Cl)c1)(C1CCC1)C(C#N)=C(N)O2 (stereo not drawn) [Compound 2.182.]
47 | < 1 | Cc1n[nH]c2c1C(c1ccc(OC(F)(F)F)cc1)(C1CCC1)C(C#N)=C(N)O2 (stereo not drawn) [Compound 2.183.]
48 | < 0.1 | Cc1n[nH]c2c1C(c1cc(Cl)cc(-c3ccccc3)c1)(C1CC1)C(C#N)=C(N)O2 (stereo not drawn) [Compound 2.184.]
49 | < 0.1 | Cc1n[nH]c2c1C(c1ccc(OCc3ccccc3)c(Cl)c1)(C(C)C)C(C#N)=C(N)O2 (stereo not drawn) [Compound 2.185.]
50 | < 0.1 | Cc1n[nH]c2c1C(c1ccc(OCc3ccccc3)c(Cl)c1)(C1CC1)C(C#N)=C(N)O2 (stereo not drawn) [Compound 2.186.]
51 | < 0.1 | Cc1n[nH]c2c1C(c1cc(Cl)cc(-c3cccc(F)c3)c1)(C1CC1)C(C#N)=C(N)O2 (stereo not drawn) [Compound 2.187.]

Row | EC50 [µM] | Compound
52 | < 0.1 | Cc1n[nH]c2c1C(c1cc(Cl)cc(Oc3ccc(F)cc3)c1)(C1CC1)C(C#N)=C(N)O2 (stereo not drawn) [Compound 2.189.]
53 | < 0.1 | Cc1n[nH]c2c1C(c1cc(Cl)cc(Oc3cccc(F)c3)c1)(C1CC1)C(C#N)=C(N)O2 (stereo not drawn) [Compound 2.190.]
54 | < 0.1 | Cc1n[nH]c2c1C(c1cc(C(F)(F)F)cc(C(F)(F)F)c1)(C1CCC1)C(C#N)=C(N)O2 (stereo not drawn) [Compound 2.191.]
55 | < 0.1 | Cc1n[nH]c2c1C(c1cccc(C#N)c1)(C1CCC1)C(C#N)=C(N)O2 (stereo not drawn) [Compound 2.192.]
56 | < 0.01 | Cc1n[nH]c2c1C(c1ccc(Cl)c(Cl)c1)(C1CCC1)C(C#N)=C(N)O2 (stereo not drawn) [Compound 2.193.]
57 | < 1 | N#CC1=C(N)Oc2[nH]nc(C(F)F)c2C1(c1cccc(C#N)c1)C1CCC1 (stereo not drawn) [Compound 2.194.]
58 | < 1 | N#CC1=C(N)Oc2[nH]ncc2C1(c1cccc(C(F)(F)F)c1)C1CCC1 (stereo not drawn) [Compound 2.195.]
59 | < 1 | COCc1n[nH]c2c1C(c1cccc(C(F)(F)F)c1)(C1CCC1)C(C#N)=C(N)O2 (stereo not drawn) [Compound 2.196.]
60 | < 1 | CCCCCCc1n[nH]c2c1C(CC)(c1cccc(Cl)c1)C(C#N)=C(N)O2 (stereo not drawn) [Compound 2.197.]
61 | < 0.01 | Cc1n[nH]c2c1C(c1cc(Cl)cc(-c3ccsc3)c1)(C1CCC1)C(C#N)=C(N)O2 (stereo not drawn) [Compound 2.198.]
62 | < 1 | Cc1n[nH]c2c1C(c1cc(Cl)cc(Cl)c1)(C1CCCC1)C(C#N)=C(N)O2 (stereo not drawn) [Compound 2.199.]
63 | < 0.1 | Cc1n[nH]c2c1C(c1cc(Cl)cc(Oc3cccc(F)c3)c1)(C1CCC1)C(C#N)=C(N)O2 (stereo not drawn) [Compound 2.200.]
64 | < 0.1 | Cc1n[nH]c2c1C(c1cc(Cl)cc(Oc3ccc(F)cc3)c1)(C1CCC1)C(C#N)=C(N)O2 (stereo not drawn) [Compound 2.201.]
65 | < 1 | COc1ccc(C2(C3CCCC3)C(C#N)=C(N)Oc3[nH]nc(C)c32)cc1Cl (stereo not drawn) [Compound 2.203.]
66 | < 10 | CC(C)CC1(c2cc(Cl)cc(Cl)c2)C(C#N)=C(N)Oc2[nH]ncc21 (stereo not drawn) [Compound 2.205.]
67 | < 10 | Cc1n[nH]c2c1C(c1cc(Cl)cc(Cl)c1)(C1CCCCC1)C(C#N)=C(N)O2 (stereo not drawn) [Compound 2.206.]
68 | < 0.01 | Cc1n[nH]c2c1C(c1cc(Cl)cc(Br)c1)(C1CCC1)C(C#N)=C(N)O2 (stereo not drawn) [Compound 2.207.]
69 | < 0.01 | COc1ccc(C2(C3CCC3)C(C#N)=C(N)Oc3[nH]nc(C)c32)cc1Br (stereo not drawn) [Compound 2.208.]
70 | < 0.01 | Cc1n[nH]c2c1C(c1cc(Cl)c(Cl)c(Cl)c1)(C1CCC1)C(C#N)=C(N)O2 (stereo not drawn) [Compound 2.209.]
71 | < 0.1 | Cc1n[nH]c2c1C(c1ccc(Cl)c(Cl)c1)(C1CCCC1)C(C#N)=C(N)O2 (stereo not drawn) [Compound 2.210.]
72 | < 0.1 | Cc1n[nH]c2c1C(c1cccc(Cl)c1)(C1CCCC1)C(C#N)=C(N)O2 (stereo not drawn) [Compound 2.211.]
73 | < 10 | Cc1n[nH]c2c1C(c1ccc(Cl)c(Cl)c1)(C1CCCCC1)C(C#N)=C(N)O2 (stereo not drawn) [Compound 2.212.]
74 | < 0.01 | Cc1n[nH]c2c1C(c1cccc(C(F)(F)F)c1)(C1CCCC1)C(C#N)=C(N)O2 (stereo not drawn) [Compound 2.213.]
75 | < 0.01 | Cc1n[nH]c2c1C(c1cc(Cl)cc(Cl)c1)(C1(F)CC1)C(C#N)=C(N)O2 (stereo not drawn) [Compound 2.214.]

From patent publication US9480259B2, “Pyrazolopyrans having herbicidal and pharmaceutical properties” (BASF SE, priority 2012, dated 2016)
